Source: ChEMBL document CHEMBL1128128, “Relationship between structure and bioavailability in a series of hydroxamate based metalloprotease inhibitors” (Bioorg Med Chem Lett, 1995)
pKi: −log10 of the molar value.

Tests used:
[1] = biological target: T1, Interstitial collagenase (Homo sapiens, UniProt P03956); test: Evaluated for inhibitory activity against Human fibroblast collagenase (HFC)
T1 sequence (P03956 whole entry): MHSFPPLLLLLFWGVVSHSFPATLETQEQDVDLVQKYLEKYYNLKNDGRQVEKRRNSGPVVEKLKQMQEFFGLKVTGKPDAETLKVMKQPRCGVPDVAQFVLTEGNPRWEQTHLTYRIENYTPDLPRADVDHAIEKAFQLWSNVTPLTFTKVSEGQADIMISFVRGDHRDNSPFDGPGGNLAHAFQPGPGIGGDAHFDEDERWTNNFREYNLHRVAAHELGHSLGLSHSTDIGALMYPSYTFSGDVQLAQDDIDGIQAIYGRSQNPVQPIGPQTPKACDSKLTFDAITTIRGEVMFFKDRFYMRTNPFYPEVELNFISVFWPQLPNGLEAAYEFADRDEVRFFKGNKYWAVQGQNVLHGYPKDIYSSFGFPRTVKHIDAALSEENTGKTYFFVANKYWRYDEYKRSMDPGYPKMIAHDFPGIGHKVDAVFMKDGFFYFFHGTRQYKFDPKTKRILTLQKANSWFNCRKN

[2] = Biliary excretion when administered intravenously at a dose of 5 mg/kg in rats; format: ADME, organism-based; parameters: dose 5 mg/kg, route intravenous; settings: rat, bile, iv, read-out: Biliary excretion
[3] = Plasma half-life was determined; format: ADME, cell-free
[4] = Plasma half-life in rats; format: ADME, organism-based; settings: rat
[5] = Maximum concentration in portal vein was determined at a concentration of 10 mg/kg in rats; format: ADME, organism-based; parameters: dose 10 mg/kg; settings: rat, portal vein blood
[6] = Biliary excretion when administered intravenously at a dose of 2.5 mg/kg in rats; format: ADME, organism-based; parameters: dose 2.5 mg/kg, route intravenous; settings: rat, bile, iv, read-out: Biliary excretion
[7] = species on record: Rattus norvegicus; test: Plasma half-life in rats; <MQL; format: ADME, organism-based; settings: in vivo
[8] = Maximum concentration in portal vein was determined at a concentration of 20 mg/kg in rats; format: ADME, organism-based; parameters: dose 20 mg/kg; settings: rat, portal vein blood

| Structure (SMILES) | pKi [1] | dose excreted [2] [%] | half-life [3] [min] | half-life [4] [min] | Cmax [5] [ng/mL] | dose excreted [6] [%] | T1/2 [7] | Cmax [8] [ng/mL] |
| --- | --- | --- | --- | --- | --- | --- | --- | --- |
| CC(C)C[C@H](CC(=O)NO)C(=O)N[C@@H](Cc1c[nH]c2ccccc12)C(=O)NCCSc1ccccc1 | 8.52 | 43.9 | – | 33.3 | – | – | – | – |
| CC(C)C[C@H](CC(=O)NO)C(=O)N[C@@H](Cc1c[nH]c2ccccc12)C(=O)NCCCCOCc1ccccc1 | 8.70 | 99.9 | – | 27 | – | – | – | – |
| CC(C)C[C@H](CC(=O)NO)C(=O)N[C@@H](Cc1c[nH]c2ccccc12)C(=O)NCc1ccc(CN(C)C)cc1 | 8.40 | – | – | – | – | 80.7 | <MQL | – |
| CC(C)C[C@H](CC(=O)NO)C(=O)N[C@@H](Cc1c[nH]c2ccccc12)C(=O)NCCCCC(=O)O | 9.00 | 108 | – | 6.9 | – | – | – | – |
| CC(C)C[C@H](CC(=O)NO)C(=O)N[C@@H](Cc1c[nH]c2ccccc12)C(=O)NCCCCN(C)C | 8.52 | – | – | 26.6 | – | 17.9 | – | – |
| CNC(=O)[C@H](Cc1ccc(OC)cc1)NC(=O)[C@@H](CC(=O)NO)CC(C)C | – | 84.1 | – | 9 | – | – | – | – |
| CC(C)C[C@H](CC(=O)NO)C(=O)N[C@@H](Cc1c[nH]c2ccccc12)C(=O)NCCSCCN1CCOCC1 | 8.40 | 30.8 | – | 42.5 | – | – | – | – |
| CC(C)C[C@H](CC(=O)NO)C(=O)N[C@@H](Cc1c[nH]c2ccccc12)C(=O)NCCS(N)(=O)=O | 8.22 | 61.3 | – | 17.6 | – | – | – | – |
| COc1ccc(C(=O)CCCCNC(=O)[C@H](Cc2c[nH]c3ccccc23)NC(=O)[C@@H](CC(=O)NO)CC(C)C)cc1 | 8.70 | 74.5 | – | 2.5 | – | – | – | – |

Further lines, results first:

| pKi [1] | dose excreted [2] [%] | half-life [3] [min] | half-life [4] [min] | Cmax [5] [ng/mL] | dose excreted [6] [%] | T1/2 [7] | Cmax [8] [ng/mL] | Structure (SMILES) |
| --- | --- | --- | --- | --- | --- | --- | --- | --- |
| 7.92 | 18.9 | 21 | – | – | – | – | – | CC(C)C[C@H](CC(=O)NO)C(=O)N[C@@H](Cc1c[nH]c2ccccc12)C(=O)NCCN(C)C |
| 8.30 | 60.8 | – | 43.7 | 2800 | – | – | – | CC(C)C[C@H](CC(=O)NO)C(=O)N[C@@H](Cc1c[nH]c2ccccc12)C(=O)NCCSCCN(C)C |
| 8.52 | 46 | – | 37.6 | – | – | – | 900 | CCSCCNC(=O)[C@H](Cc1c[nH]c2ccccc12)NC(=O)[C@@H](CC(=O)NO)CC(C)C |
| 8.52 | 18.1 | – | 25 | – | – | – | – | CC(C)C[C@H](CC(=O)NO)C(=O)N[C@@H](Cc1c[nH]c2ccccc12)C(=O)NCCCN(C)C |
| 9.00 | 53 | – | 37 | – | – | – | – | CSCCCNC(=O)[C@H](Cc1c[nH]c2ccccc12)NC(=O)[C@@H](CC(=O)NO)CC(C)C |
| 8.70 | 44.8 | – | 7.4 | – | – | – | – | CC(C)C[C@H](CC(=O)NO)C(=O)N[C@@H](Cc1c[nH]c2ccccc12)C(=O)NCC[S+](C)[O-] (stereo not given in full) |
| 8.52 | 67.2 | – | 24 | – | – | – | – | CC(C)C[C@H](CC(=O)NO)C(=O)N[C@@H](Cc1c[nH]c2ccccc12)C(=O)NCCS(C)(=O)=O |
| 8.30 | 59.2 | – | 19 | – | – | – | – | COCCNC(=O)[C@H](Cc1c[nH]c2ccccc12)NC(=O)[C@@H](CC(=O)NO)CC(C)C |
| 8.30 | 27.3 | – | 32.4 | – | – | – | – | CSCCNC(=O)[C@H](Cc1c[nH]c2ccccc12)NC(=O)[C@@H](CC(=O)NO)CC(C)C |
